Data from patent publication US7608619B2, “Substituted oxazole compounds with analgesic activity” (Gruenenthal GmbH, priority 2005, dated 2009).

Molecular target: T1, human μ-opiate receptor (Homo sapiens, UniProt P35372)
T1 construct: purchased Nen company, Zaventem, Belgium RB-HOM; host or cells: CHO-K1 cells (membrane preparation)
Assay: Affinity for the human μ-opiate receptor ([3H]-naloxone displacement, SPA, CHO-K1 membrane preparation)
Settings: test substance 1 μmole/l; displacement of 1 nmole/l [3H]-naloxone; percentage inhibition of the specific binding
Method in brief: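 [3H]-naloxone (1 nmol/l) displacement by SPA with WGA beads, using membranes of CHO-K1 cells expressing the receptor, in 50 mmol/l Tris-HCl with 0.05% azide and 0.06% BSA; 90 min at room temperature. Non-specific binding defined with 25 μmol/l naloxone. Value is % inhibition of specific binding at 1 μmol/l test compound.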

T1 sequence (P35372 whole entry): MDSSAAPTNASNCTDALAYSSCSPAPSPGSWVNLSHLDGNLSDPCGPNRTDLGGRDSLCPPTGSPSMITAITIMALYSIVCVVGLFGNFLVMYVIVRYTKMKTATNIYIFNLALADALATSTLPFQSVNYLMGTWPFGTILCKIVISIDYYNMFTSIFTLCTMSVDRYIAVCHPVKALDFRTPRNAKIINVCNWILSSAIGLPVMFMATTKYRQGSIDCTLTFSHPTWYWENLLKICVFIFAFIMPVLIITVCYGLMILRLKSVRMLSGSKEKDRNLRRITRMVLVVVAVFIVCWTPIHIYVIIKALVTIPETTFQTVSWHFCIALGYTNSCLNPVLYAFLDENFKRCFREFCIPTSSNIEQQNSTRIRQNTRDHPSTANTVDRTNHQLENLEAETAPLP

Q: With CN(CCc1ccccc1)c1oc(C(CC2CCC(C(c3ccc(F)cc3)N(C)C)CC2)N(C)c2ccccc2)nc1Cc1ccccc1 (stereo not drawn) [compound 102, {4-benzyl-2-[2-{4-[dimethylamino-(4-fluorophenyl)-methyl]-cyclohexyl}-1-(methylphenylamine)-ethyl]-oxazol-5-yl}-methylphenethylamine] as the compound, how does the “μ-opioid receptor, % inhibition [1 μM]” value read?
A: 77%

Q: Which “μ-opioid receptor, % inhibition [1 μM]” value does the source give for CCN(CC)c1oc(C(CC2CCC(C(c3ccc(F)cc3)N(C)C)CC2)N(C)c2ccccc2)nc1Cc1ccccc1 (stereo not drawn) [compound 103, {4-benzyl-2-[2-{4-[dimethylamino-(4-fluorophenyl)-methyl]-cyclohexyl}-1-(methylphenylamine)-ethyl]-oxazol-5-yl}-diethylamine] here?
A: 79%

Same assay, conditions: test substance 1 μmole/l; displacement of 1 nmole/l [3H]-naloxone; percentage inhibition of the specific binding; read-out: μ-opioid receptor, % inhibition [1 μM]

Q: Which inhibition at 1 µM does the source give for CC1CC(C)CN(c2oc(C(CC3CCC(C(c4ccc(F)cc4)N(C)C)CC3)N(C)c3ccccc3)nc2Cc2ccccc2)C1 (stereo not drawn) [compound 101, (1-[4-benzyl-5-(3,5-dimethylpiperidin-1-yl)-oxazol-2-yl]-2-{4-[dimethylamino-(4-fluorophenyl)-methyl]-cyclohexyl}-ethyl)-methylphenylamine] here?
A: 68%

Q: How did the inhibition at 1 µM turn out when CN(C)C(c1ccc(F)cc1)C1CCC(CC(c2nc(Cc3ccccc3)c(N3CCSCC3)o2)N(C)c2ccccc2)CC1 (stereo not drawn) [compound 104, (1-(4-benzyl-5-thiomorpholin-4-yl-oxazol-2-yl)-2-{4-[dimethylamino-(4-fluorophenyl)-methyl]-cyclohexyl}-ethyl)-methylphenylamine] was run?
A: 89%

Q: Which inhibition at 1 µM does the source give for CC1CCCN(c2oc(C(CC3CCC(C(c4ccc(F)cc4)N(C)C)CC3)N(C)c3ccccc3)nc2Cc2ccccc2)C1 (stereo not drawn) [compound 105, (1-[4-benzyl-5-(3-methylpiperidin-1-yl)-oxazol-2-yl]-2-{4-[dimethylamino-(4-fluorophenyl)-methyl]-cyclohexyl}-ethyl)-methylphenylamine] here?
A: 71%

Q: How did the inhibition at 1 µM turn out when CC1CCCN(c2oc(C(CC3CCC(C(c4ccc(F)cc4)N(C)C)CC3)N3CCN(Cc4ccccc4)CC3)nc2Cc2ccccc2)C1 (stereo not drawn) [compound 106, [{4-[2-[4-benzyl-5-(3-methylpiperidin-1-yl)-oxazol-2-yl]-2-(4-benzyl-piperazin-1-yl)-ethyl]-cyclohexyl}-(4-fluorophenyl)-methyl]-dimethylamine] was run?
A: 61%

Q: Which inhibition at 1 µM does the source give for CC1CC(C)CN(c2oc(C(CC3CCC(C(c4cccs4)N(C)C)CC3)N3CCCCC3)nc2Cc2ccccc2)C1 (stereo not drawn) [compound 107, [(4-{2-[4-benzyl-5-(3,5-dimethylpiperidin-1-yl)-oxazol-2-yl]-2-piperidin-1-yl-ethyl}-cyclohexyl)-thiophen-2-yl-methyl]-dimethylamine] here?
A: 84%

Q: With CN(CCc1ccccc1)c1oc(C(CC2CCC(C(c3cccs3)N(C)C)CC2)N2CCCCC2)nc1Cc1ccccc1 (stereo not drawn) [compound 108, (4-benzyl-2-{2-[4-(dimethylaminothiophen-2-yl-methyl)-cyclohexyl]-1-piperidin-1-yl-ethyl}-oxazol-5-yl)-methylphenethylamine] as the compound, how does the inhibition at 1 µM read?
A: 88%

Q: With CCN(CC)c1oc(C(CC2CCC(C(c3cccs3)N(C)C)CC2)N2CCCCC2)nc1Cc1ccccc1 (stereo not drawn) [compound 109, (4-benzyl-2-{2-[4-(dimethylaminothiophen-2-yl-methyl)-cyclohexyl]-1-piperidin-1-yl-ethyl}-oxazol-5-yl)-diethylamine] as the compound, how does the inhibition at 1 µM read?
A: 98%

Q: With CN(C)C(c1cccs1)C1CCC(CC(c2nc(Cc3ccccc3)c(N3CCSCC3)o2)N2CCCCC2)CC1 (stereo not drawn) [compound 110, ({4-[2-(4-benzyl-5-thiomorpholin-4-yl-oxazol-2-yl)-2-piperidin-1-yl-ethyl]-cyclohexyl}-thiophen-2-yl-methyl)-dimethylamine] as the compound, how does the inhibition at 1 µM read?
A: 97%

Q: How did the inhibition at 1 µM turn out when CC1CCCN(c2oc(C(CC3CCC(C(c4cccs4)N(C)C)CC3)N3CCCCC3)nc2Cc2ccccc2)C1 (stereo not drawn) [compound 111, [(4-{2-[4-benzyl-5-(3-methylpiperidin-1-yl)-oxazol-2-yl]-2-piperidin-1-yl-ethyl}-cyclohexyl)-thiophen-2-yl-methyl]-dimethylamine] was run?
A: 92%

Q: How did the inhibition at 1 µM turn out when CCN(CC)C(CC1CCC(C(c2cccs2)N(C)C)CC1)c1nc(Cc2ccccc2)c(N2CC(C)CC(C)C2)o1 (stereo not drawn) [compound 112, {1-[4-benzyl-5-(3,5-dimethylpiperidin-1-yl)-oxazol-2-yl]-2-[4-(dimethylamino-thiophen-2-yl-methyl)-cyclohexyl]-ethyl}-diethylamine] was run?
A: 89%

Q: With CCN(CC)C(CC1CCC(C(c2cccs2)N(C)C)CC1)c1nc(Cc2ccccc2)c(N(C)CCc2ccccc2)o1 (stereo not drawn) [compound 113, (4-benzyl-2-{1-diethylamino-2-[4-(dimethylaminothiophen-2-yl-methyl)-cyclohexyl]-ethyl}-oxazol-5-yl)-methylphenethylamine] as the compound, how does the inhibition at 1 µM read?
A: 97%

Q: How did the inhibition at 1 µM turn out when CCN(CC)c1oc(C(CC2CCC(C(c3cccs3)N(C)C)CC2)N(CC)CC)nc1Cc1ccccc1 (stereo not drawn) [compound 114, (4-benzyl-2-{1-diethylamino-2-[4-(dimethylaminothiophen-2-yl-methyl)-cyclohexyl]-ethyl}-oxazol-5-yl)-diethylamine] was run?
A: 94%

Q: CCN(CC)C(CC1CCC(C(c2cccs2)N(C)C)CC1)c1nc(Cc2ccccc2)c(N2CCSCC2)o1 (stereo not drawn) [compound 115, {1-(4-benzyl-5-thiomorpholin-4-yl-oxazol-2-yl)-2-[4-(dimethylamino-thiophen-2-yl-methyl)-cyclohexyl]-ethyl}-diethylamine] was tested. Which inhibition at 1 µM did it give?
A: 93%

Q: For CCN(CC)C(CC1CCC(C(c2cccs2)N(C)C)CC1)c1nc(Cc2ccccc2)c(N2CCCC(C)C2)o1 (stereo not drawn) [compound 116, {1-[4-benzyl-5-(3-methylpiperidin-1-yl)-oxazol-2-yl]-2-[4-(dimethylamino-thiophen-2-yl-methyl)-cyclohexyl]-ethyl}-diethylamine], which inhibition at 1 µM is on record?
A: 94%

Q: With CC1CCCN(c2oc(C(CC3CCC(C(c4cccs4)N(C)C)CC3)N(C)c3ccccc3)nc2Cc2ccccc2)C1 (stereo not drawn) [compound 117, {1-[4-benzyl-5-(3-methylpiperidin-1-yl)-oxazol-2-yl]-2-[4-(dimethylamino-thiophen-2-yl-methyl)-cyclohexyl]-ethyl}-methylphenylamine] as the compound, how does the inhibition at 1 µM read?
A: 99%

Q: CN(C)C(c1cccs1)C1CCC(CC(c2nc(Cc3ccccc3)c(N3CCSCC3)o2)N2CCN(Cc3ccccc3)CC2)CC1 (stereo not drawn) [compound 118, ({4-[2-(4-benzylpiperazin-1-yl)-2-(4-benzyl-5-thiomorpholin-4-yl-oxazol-2-yl)-ethyl]-cyclohexyl}-thiophen-2-yl-methyl)-dimethylamine] was tested. Which inhibition at 1 µM did it give?
A: 84%

Q: With CC1CCCN(c2oc(C(CC3CCC(C(c4cccs4)N(C)C)CC3)N3CCN(Cc4ccccc4)CC3)nc2Cc2ccccc2)C1 (stereo not drawn) [compound 119, ({4-[2-[4-benzyl-5-(3-methylpiperidin-1-yl)-oxazol-2-yl]-2-(4-benzyl-piperazin-1-yl)-ethyl]-cyclohexyl}-thiophen-2-yl-methyl)-dimethylamine] as the compound, how does the inhibition at 1 µM read?
A: 99%

Q: With CN(C)C(c1cccc(F)c1)C1CCC(C(c2nc(Cc3ccccc3)c(N3CCCC3)o2)N2CCOCC2)CC1 (stereo not drawn) [compound 120, [{4-[(4-benzyl-5-pyrrolidin-1-yl-oxazol-2-yl)-morpholin-4-yl-methyl]-cyclohexyl}-(3-fluorophenyl)-methyl]-dimethylamine] as the compound, how does the inhibition at 1 µM read?
A: 75%

Q: CN(C)C(c1cccc(F)c1)C1CCC(C(c2nc(Cc3ccccc3)c(N3CCOCC3)o2)N2CCOCC2)CC1 (stereo not drawn) [compound 121, [{4-[(4-benzyl-5-morpholin-4-yl-oxazol-2-yl)-morpholin-4-yl-methyl]-cyclohexyl}-(3-fluorophenyl)-methyl]-dimethylamine] was tested. Which inhibition at 1 µM did it give?
A: 67%
